Experimental data as given in PMC3411647 (PLoS ONE, 2012).

Molecular target: T1, mouse H3R (Mus musculus, UniProt P58406)
T1 construct: endogenous in cells; host or cells: primary cortical neurons of neonatal ICR mice
Assay: ERK1/2 phosphorylation in neonatal mouse cortical neuron cultures
Assay type: cell-based
Conditions: 5 µM
Method: Figure 8 Phosphorylation of ERK1/2 induced by ZEL-H16 in mouse cortical neurons. A, Time-dependent phosphorylation of ERK1/2 induced by 5 µM ZEL-H16 in neonatal mouse cortical neuron cultures. B, The phosphorylation of ERK1/2 induced by 50 µM ZEL-H16 for 20 min was mostly abolished by 100 ng/mL PTX or 10 µM thioperamide. Signals were quantified by densitometric image analysis and p-ERK was normalized to a loading control (ERK). The signal at each point is expressed as the percentage of the maximal p-ERK signal induced by ZEL-H16. Data represent the mean ±SE of three independent experiments.
Neuronal cortical cultures were prepared from neonatal ICR mice. Cerebral cortices were dissociated in sterile Dulbecco’s phosphate-buffered saline (D-PBS; Sigma-Aldrich, St. Louis, MO), and the neurons were isolated in the same medium containing 0.5% trypsin at 37°C for 10 min. After centrifugation, dissociated neurons were re-suspended in neurobasal medium (NBM; Gibco, Carlsbad, CA) supplemented with 2% B-27 and 0.5 mmol/L-glutamine (Gibco, Carlsbad, CA) and then plated on 48-well plates at a density of approximately 1.3×10^6 per well. After 7 days of culture, the neurons were serum starved for approximately 3 h prior to drug treatment. […]

T1 sequence (P58406 whole entry): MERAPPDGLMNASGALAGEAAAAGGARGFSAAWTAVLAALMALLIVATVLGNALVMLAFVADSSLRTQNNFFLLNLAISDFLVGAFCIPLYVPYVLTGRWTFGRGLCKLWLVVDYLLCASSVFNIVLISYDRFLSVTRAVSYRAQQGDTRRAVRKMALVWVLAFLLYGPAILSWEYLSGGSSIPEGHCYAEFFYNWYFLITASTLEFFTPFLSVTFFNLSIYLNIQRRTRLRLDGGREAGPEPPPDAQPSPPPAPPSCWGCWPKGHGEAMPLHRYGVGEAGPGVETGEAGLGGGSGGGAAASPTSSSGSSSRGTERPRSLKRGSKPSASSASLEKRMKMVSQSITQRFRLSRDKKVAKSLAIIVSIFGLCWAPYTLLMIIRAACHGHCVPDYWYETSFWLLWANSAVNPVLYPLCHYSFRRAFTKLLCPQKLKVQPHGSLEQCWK

time of maximal ERK activation after stimulation: 20 min
Compound: c1ccc2c(c1)c(CCCN1CCCCC1)cn2CCCN1CCCCC1 [ZEL-H16]
